In article PMC3855619 (Biochemistry, 2013):

Biological target: GI 77862362; decaprenyl diphosphate synthase [Rhodobacter capsulatus] (Rhodobacter capsulatus, UniProt Q07D00)
Experiment: product chain-length by TLC with […]IPP
Type: biochemical

Sequence of GI 77862362; decaprenyl diphosphate synthase [Rhodobacter capsulatus] (Q07D00 1-333): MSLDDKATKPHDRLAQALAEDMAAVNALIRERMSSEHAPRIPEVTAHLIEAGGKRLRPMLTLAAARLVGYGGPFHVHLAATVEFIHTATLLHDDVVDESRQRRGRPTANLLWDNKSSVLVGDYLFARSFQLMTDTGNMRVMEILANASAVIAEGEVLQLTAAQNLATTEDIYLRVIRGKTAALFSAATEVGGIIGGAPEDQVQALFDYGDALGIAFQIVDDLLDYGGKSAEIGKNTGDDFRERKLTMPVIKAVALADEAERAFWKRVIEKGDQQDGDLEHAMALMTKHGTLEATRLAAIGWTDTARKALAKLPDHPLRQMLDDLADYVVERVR

SMILES: C=C(C)CCOP(=O)(O)OP(=O)(O)O [IPP]
- product chain-length by TLC with [14C]IPP: different ratios of IPP:DMAPP and IPP:FPP
